BindingDB's records for patent US10961236 (Astrazeneca, 2021)

Target: T1, Phosphatidylinositol 4,5-bisphosphate 3-kinase catalytic subunit gamma isoform [144-1102] (Homo sapiens, UniProt P48736)
T1 construct: 144-1102
Assay: Enzymatic Activity Assay
Protocol: Routinely, inhibitors were pre-incubated with 3 μl of enzyme for 15 min prior to the addition of 2 μl substrate mixture for a further 60 min enzyme reaction. The phosphorylation was stopped with the addition of 3 μl ADP-Glo reagent (stop solution) followed by a 40 min incubation. Prior to detection 6 μl of ADP-Glo Kinase Detection Reagent was added and the plates were read in a micro plate reader using a Luminescence filter. All additions were followed by a short centrifugation step.

T1 sequence (P48736 144-1102): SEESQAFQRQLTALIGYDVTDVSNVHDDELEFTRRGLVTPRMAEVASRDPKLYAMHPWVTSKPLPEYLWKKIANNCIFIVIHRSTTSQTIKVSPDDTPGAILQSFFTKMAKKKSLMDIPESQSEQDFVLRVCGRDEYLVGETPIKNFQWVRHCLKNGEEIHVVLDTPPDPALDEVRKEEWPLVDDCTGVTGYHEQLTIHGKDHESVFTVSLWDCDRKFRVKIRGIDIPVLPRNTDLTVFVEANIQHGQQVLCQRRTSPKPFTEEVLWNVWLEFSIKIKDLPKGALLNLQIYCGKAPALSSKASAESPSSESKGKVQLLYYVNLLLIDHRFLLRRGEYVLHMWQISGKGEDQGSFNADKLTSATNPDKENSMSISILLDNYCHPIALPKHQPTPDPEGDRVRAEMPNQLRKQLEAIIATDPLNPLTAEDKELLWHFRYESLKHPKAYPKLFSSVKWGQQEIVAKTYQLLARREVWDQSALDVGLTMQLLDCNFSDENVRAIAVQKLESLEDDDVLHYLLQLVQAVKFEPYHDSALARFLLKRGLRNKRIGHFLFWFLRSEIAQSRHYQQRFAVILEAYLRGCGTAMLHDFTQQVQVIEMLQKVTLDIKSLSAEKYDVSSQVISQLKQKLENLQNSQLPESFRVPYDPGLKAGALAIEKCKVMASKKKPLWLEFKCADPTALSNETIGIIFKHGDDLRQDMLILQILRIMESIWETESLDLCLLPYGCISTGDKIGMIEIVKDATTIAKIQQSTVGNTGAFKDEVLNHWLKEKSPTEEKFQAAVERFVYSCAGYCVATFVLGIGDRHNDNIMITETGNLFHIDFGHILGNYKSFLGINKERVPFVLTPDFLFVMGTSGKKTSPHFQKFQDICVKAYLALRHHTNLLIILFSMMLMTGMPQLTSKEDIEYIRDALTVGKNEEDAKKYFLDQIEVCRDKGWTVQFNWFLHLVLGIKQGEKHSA

**Q.** `CC[C@H](C)N1Cc2cc(-c3sc(Nc4cccc(N5CCCOC5=O)n4)nc3C)cc(S(=O)(=O)NC)c2C1=O` [US10961236, Example 61] was tested. Which IC50 did it give?
**A.** The IC50 was 1 nM.
